In PubChem BioAssay (NCI):
Several values for one entry are separate records, joined by “and”; a condition that tells them apart may be missing. Identical values can stand only once.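 Compound exposure: 48 hours, 5 concentrations, 96-well plates. GI50 marks 50% less growth. At the TGI there is no net growth.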

How the values were obtained:
Experiment in all cases: NCI anticancer screen, dose series, 48 h
[1] = test system: NCI/ADR-RES ovarian
[2] = test system: T-47D breast
[3] = test system: PC-3 prostate
[4] = test system: SK-MEL-5 melanoma
[5] = test system: HT29 colon
[6] = test system: COLO 205 colon
[7] = test system: HL-60(TB) leukemia
[8] = test system: EKVX NSCLC
[9] = test system: RPMI-8226 leukemia
[10] = test system: HCC-2998 colon

Row | SMILES | GI50 [1] | TGI [1] | GI50 [2] | TGI [2] | GI50 [3] | TGI [3] | GI50 [4] | TGI [4] | GI50 [5] | TGI [5] | GI50 [6] | TGI [6] | GI50 [7] | TGI [7] | GI50 [8] | TGI [8] | GI50 [9] | TGI [9] | GI50 [10] | TGI [10]
1 | CCNC(=O)Nc1ccc(Oc2ccnc3ccc4c(ccn4C)c23)cc1 | 55.8 µM | > 100 µM | 23.2 µM | 62.1 µM | > 100 µM | > 100 µM | 75.5 µM | > 100 µM | 44.6 µM | > 100 µM | 29.8 µM | > 100 µM | > 100 µM | > 100 µM | > 100 µM | > 100 µM | > 100 µM | > 100 µM | 28.2 µM | 63.9 µM
2 | COC(=O)C1=CO[C@@H](OC2OC(CO)C(O)C(O)C2O)[C@H]2[C@@H](C)[C@@H](O)[C@@H](O)[C@@H]12 (stereo not given in full) | – | > 100 µM | – | > 100 µM | – | > 100 µM | – | > 100 µM | – | > 100 µM | – | > 100 µM | – | > 100 µM | – | > 100 µM | – | > 100 µM | – | > 100 µM
3 | CC(=O)Nc1c(I)c(NC(C)=O)c(I)c(C(=O)O)c1I | > 100 µM | > 100 µM | > 100 µM | > 100 µM | > 100 µM | > 100 µM | > 100 µM | > 100 µM | > 100 µM | > 100 µM | > 100 µM | > 100 µM | > 100 µM | > 100 µM | > 100 µM | > 100 µM | > 100 µM | > 100 µM | > 100 µM | > 100 µM
4 | O=C1NC2C(=CC(O)C(O)C2O)c2cc3c(cc21)OCO3 (stereo not given) | 0.152 µM | 0.561 µM and 3.38 µM | – | 1.5 µM | – | 2.08 µM | 0.282 µM | 0.936 µM and 5.01 µM and 1.23 µM | 0.273 µM | 3.58 µM and 5.95 µM | 0.074 µM | 0.595 µM and 0.249 µM and 0.579 µM | – | 0.282 µM and 0.213 µM and 0.594 µM | 0.285 µM | 3.06 µM and 2.29 µM | 0.5 µM and 0.147 µM | 0.908 µM and 1.67 µM | 0.179 µM | 1.38 µM and 1.67 µM
5 | C[C@@H](NC(=O)/C(C#N)=C/c1ccc([N+](=O)[O-])cc1)c1ccccc1 | 3.19 µM | 13.3 µM | 5.53 µM | 26.4 µM | 2.34 µM | 6.65 µM | 1.94 µM | 3.95 µM | 4.85 µM | 10.2 µM | 2 µM | 3.71 µM | 2.42 µM | 5.51 µM | 6.81 µM | 20.7 µM | 2.23 µM | 5.95 µM | 1.87 µM | 3.53 µM
6 | COc1cc(C(=O)N2CCN(c3ccccc3)CC2)c2ccccc2n1 | 0.0361 µM | 0.176 µM | 0.053 µM | > 100 µM | 0.0846 µM | > 100 µM | 0.0541 µM | 9.42 µM | 0.041 µM | 10.3 µM | 0.0623 µM | 0.659 µM | 0.11 µM | – | 0.243 µM | > 100 µM | 0.247 µM | > 100 µM | 0.0696 µM | 0.486 µM
7 | COc1ccc2c(c1)CC[C@@H]1[C@@H]2CC[C@]2(C)c3c(cc(C(=O)O)c4sccc34)C[C@@H]12 | 15.4 µM | 40.2 µM | 8.21 µM | 49 µM | 10.5 µM | 25.1 µM | 14.7 µM | 28.4 µM | 13.8 µM | 34 µM | 16.4 µM | 70 µM | 8.61 µM | 25.3 µM | 16.2 µM | 40.5 µM | 4.01 µM | 17.7 µM | 11 µM | 26.7 µM
8 | COc1ccc(Nc2cc(C)nc(NCc3ccccc3)n2)cc1 | 2.92 µM | 17.6 µM | 2.6 µM | 11.3 µM | 3.25 µM | 19 µM | 1.36 µM | 2.84 µM | 2.81 µM | 12.7 µM | 2.08 µM | 4.4 µM | 4.91 µM | 27.6 µM | 3.3 µM | 18.6 µM | 1.81 µM | 7.41 µM | 2.02 µM | 4.04 µM
9 | N/C(=N/N=C/c1ccccc1)N/N=C\c1ccccc1 | 3.26 µM | > 100 µM | 4.73 µM | > 100 µM | 6.21 µM | > 100 µM | 3.38 µM | 13.3 µM | 3.25 µM | 52 µM | 3.66 µM | 14.7 µM | 3.9 µM | 23 µM | 7.59 µM | > 100 µM | 5.21 µM | 29.7 µM | 7.21 µM | 37.8 µM
10 | O=C([O][Hg][CH2]C1OCCOC1[CH2][Hg][O]C(=O)c1ccccc1)c1ccccc1 (stereo not given) | 18.7 µM | 40.7 µM | 1.82 µM | 3.59 µM | 6.52 µM | 14.6 µM | 7.58 µM | 22.8 µM | 5.77 µM | 10.6 µM | 1.82 µM | 3.27 µM | 2.67 µM | 7.41 µM | 18.3 µM | 35.5 µM | 7.5 µM | > 22.6 µM | 17.1 µM | 30.8 µM
11 | COc1cc(-c2oc3c(OC)cc(OC)c(O)c3c(=O)c2OC)cc(OC)c1OC | – | > 100 µM | – | > 100 µM | – | > 100 µM | – | > 100 µM | – | > 100 µM | – | > 100 µM | – | > 100 µM | – | > 100 µM | – | > 100 µM | – | > 100 µM
12 | COc1ccc(Cn2cc3c(c2-c2ccccc2)CCc2cnoc2-3)cc1OC | 0.324 µM | 1.91 µM | 0.664 µM | 71.2 µM | 3.08 µM | > 100 µM | 0.49 µM | 10.4 µM | 0.387 µM | > 100 µM | 0.55 µM | 3.81 µM | 0.299 µM | 1.69 µM | 1.66 µM | > 100 µM | 3.16 µM | > 100 µM | 2.19 µM | > 100 µM
13 | COCCNc1ccc2c3c(cccc13)C(=O)N(CCN(C)C)C2=O | 8.98 µM | > 25 µM | 4.87 µM | 23.8 µM | 9.76 µM | > 25 µM | 4.76 µM | 13.1 µM | 7.66 µM | > 25 µM | 2.74 µM | 12.5 µM | 6.78 µM | 14.4 µM | 6.23 µM | > 25 µM | 5.27 µM | 15 µM | 10.1 µM | > 25 µM
14 | COc1cc(/C(=C2/O[C@@H]([C@H]3COC(C)(C)O3)[C@H]3OC(C)(C)O[C@@H]23)c2ccc3ccccc3c2)cc(OC)c1OC | 4.26 µM | 22.3 µM | 3.45 µM | 40.6 µM | 5.71 µM | > 100 µM | 4.07 µM | 15.4 µM | 3.64 µM | 16.3 µM | 6.97 µM | > 100 µM | 74.9 µM | > 100 µM | 5.59 µM | > 100 µM | 33.3 µM | > 100 µM | 6.47 µM | > 100 µM
15 | CONC(C)=O | – | > 100 µM | – | > 100 µM | – | > 100 µM | – | > 100 µM | – | > 100 µM | – | > 100 µM | – | > 100 µM | – | > 100 µM | – | > 100 µM | – | > 100 µM
16 | CCOC(=O)c1cc(C(=O)c2cc(OC)c(OC)c(OC)c2)n2c1ccc1ccccc12 | 0.172 µM | > 100 µM | 0.57 µM | > 100 µM | 0.294 µM | > 100 µM | 0.434 µM | > 100 µM | 0.254 µM | – | 0.26 µM | 1.94 µM | 0.338 µM | > 100 µM | 0.461 µM | > 100 µM | 0.378 µM | > 100 µM | 0.514 µM | > 100 µM
17 | CC[C@@H](C(=O)[C@H](C)[C@H](O)[C@@H](C)[C@H]1O[C@H]([C@@H](CC)C(=O)N(CC)CC)CC[C@H]1C)C1O[C@]2(C=C[C@@H](O)[C@]3(CC[C@@](C)([C@H]4CC[C@](O)(CC)[C@H](C)O4)O3)O2)[C@H](C)C[C@@H]1C (stereo not given in full) | 2.56 µM | 9.27 µM | 2.44 µM | 13.7 µM | 2.54 µM | 11.9 µM | 1.76 µM | 3.24 µM | 3.34 µM | 15.6 µM | 2.5 µM | 5.82 µM | 2.24 µM | 5.13 µM | 2.58 µM | 11.4 µM | 2.05 µM | 6.15 µM | 2.97 µM | 10.7 µM
